Here are results for one compound from patent US20240316012A1, “METHODS FOR TREATING LYMPHOMA” (Northwestern University, priority 2023, published 2024).

The experiment concerns ACLY (p-ACLY^S455). Description: Western blot analysis of p-ACLY^S455. As to conditions: overnight in vitro with anti-PD-L1; Wortmannin 20 nM, LY294002 20 μM; 2 μM, 10 μM. It is filed as cell-based, mouse. As to the method:
FIGS. 4A-4H show ACLY is a critical effector molecule downstream of PD-1. […] ITK-SYK^+ cells were FACS-sorted from ITK-SYK^CD4-creERT2 mice on d5 after TAM and 12 h anti-PD-L1 or isotype control antibody treatment (i.p., 200 μg). P=paired two-sided Student's t-test. Data are presented as the mean±SD. […] Spleen-derived single-cell suspensions were FACS-sorted from ITK-SYK^CD4-creERT2 mice on d5 after TAM and cultured in vitro overnight with anti-PD-L1 or isotype control antibodies and the PI3K inhibitors (“iPI3K”) Wortmannin (20 nM), LY294002 (20 μM), or DMSO. […] Spleen-derived lymphocytes, FACS-sorted from ITK-SYK^CD4-creERT2 and ITK-SYK^CD4-creERT2; Pdcd1^−/− mice on d5 after TAM were incubated for three days in vitro. P=two-sided Student's t-test. Data are presented as the mean±SD. […] Protein lysates were generated after 48 h in vitro culture. RNP, ribonucleoprotein. […] P=two-sided Logrank-test. […] ITK-SYK^+ cells were FACS-sorted from ITK-SYK^CD4-creERT2 (“Pdcd1^+/+”) and ITK-SYK^CD4-creERT2; Pdcd1^−/− (“Pdcd1^−/−”) mice on d5 after TAM, fixed, and processed for anti-H3K27ac ChIP-seq analysis. ChIP-seq, chromatin immunoprecipitation sequencing; TSS, transcription start site. FIG. 4B, Representative data from three independent experiments with three biological replicates per group. FIG. 4C, Representative data from two independent experiments with two biological replicates. […]

For `O=c1cc(N2CCOCC2)oc2c(-c3ccccc3)cccc12` [LY294002, 2-(4-morpholinyl)-8-phenyl-4H-1-benzopyran-4-one], the “p-ACLY^S455 phosphorylation induced by PD-1 inactivation” value is “could be reversed”.
